Laboratory results taken from US20260306464A1, “LINAPRAZAN GLURATE FOR TREATING GASTROESOPHAGEAL REFLUX DISEASE (GERD)” (Cinclus Pharma Holding AB (publ), priority 2023, published 2026).

Tests used:
[1] = LEED study: safety and tolerability (adverse events); conditions: for COVID-19 (%) / COVID-19 events / Constipation (%) / Constipation events / Headache (%) / Headache events / Nausea (%) / Nausea events: TEAE
[2] = Plasma pharmacokinetics / metabolism of linaprazan glurate; assay type: in vivo
[3] = LEED study: heartburn assessed by mRESQ-eDiary; assay type: in vivo, human; conditions: for % at most mild symptoms 24-hour days (mean) / % heartburn-free 24-hour days (mean) / Patients (%) totally free from heartburn / Patients (%) with at most mild heartburn / Patients (%) with non-mild heartburn: week 4, erosive patients all LA grades
From the text: Relief of reflux-related symptoms may be assessed based on the modified Reflux Symptom Reflux Questionnaire-electronic Diary (mRESQ-eDiary), which is an electronic symptom diary developed for use in partial responders to proton pump inhibitors. mRESQ-eD has three domains (i.e., heartburn, other GERD signs/symptoms and regurgitations/reflux) and eight items (Andrae et al., Clin. Transl. Gastroenterol. 2020, 11(1): e00117).
The study was a randomized, double-blind, active comparator-controlled study with a parallel group design including four arms with linaprazan glurate and one arm with lansoprazole. Pharmacokinetic (PK) blood sampling pre-dose, close before the first and the second dose administration was performed at Day 7, Day 14 and Day 28 visits days in all patients. 248 patients with erosive esophagitis due to GERD LA grade C or D and patients with erosive esophagitis due to GERD LA grade A or B with at least partial symptom response but still endoscopically unhealed after 8 weeks history of standard treatment healing course with PPI, were randomized.
Randomization to one of the treatments with linaprazan glurate 25 mg, 50 mg, 75 mg, 100 mg twice daily (BID), or lansoprazole 30 mg once daily (QD) was based on a 1:1:1:1:1 scheme. One site could not enroll more than about 20% of the overall number of patients (48 patients per site).
The duration of each patient's participation in the study, including screening, blind treatment period and open-label treatment period, was approximately 60 days. The patients were randomized for 4 weeks (28 days, −2/+5 days) of double-blind treatment and were provided with IMP for 35 days (including one additional blister pack dispensed at Visit 2/Day 0) to allow for treatment up to the visit window. […] Following the endoscopic evaluation, all patients received subsequent 4 weeks of open-label treatment with lansoprazole 30 mg QD. Repeated symptom evaluation to detect symptom pattern was assessed during this period.
Four doses of linaprazan glurate (25 mg, 50 mg, 75 mg, 100 mg, and dummies) were administered as tablets twice daily. The active comparator lansoprazole 30 mg and its dummy were administered as capsules once daily in the morning. The study drugs were taken with 100 mL of noncarbonated water at least 30 minutes prior to meals. The duration of double-blind treatment was 28 days −2/+5 days. To blind treatment, each patient received 2 tablets (containing doses of linaprazan glurate (LG) or its dummy) and one capsule (containing lansoprazole or its dummy) in the morning and 2 tablets (containing doses of linaprazan glurate (LG) or its dummy) in the evening, according to the scheme below:
A secondary objective of the study was the safety and tolerability of the four dose levels of linaprazan glurate and lansoprazole, with lansoprazole serving as the active comparator. Another secondary objective of the study was the reflux related symptom pattern during the initial 4 weeks treatment with four dose levels of linaprazan glurate and with lansoprazole, and the symptom pattern during the subsequent additional 4 weeks (weeks 5-8) open-label treatment with lansoprazole 30 mg QD. Heartburn-free 24-hour days and 24-hour days with at most mild heartburn symptoms were assessed based on modified eDiary (mRESQ-eD), including splits into day- and nighttime evaluations.
Reflux related symptoms were assessed based on a modified RESQ-eDiary (mRESQ-eD). Patients were asked to report every 12-hours, once before the morning dose and once before the evening dose of the Investigational Medicinal Product (IMP).

[4] = test system: gastric hydrogen potassium pump (H+/K+ ATPase); conditions: healthy subjects; cited from earlier work

SMILES: Cc1cccc(C)c1CNc1cc(C(=O)NCCOC(=O)CCCC(=O)O)cn2c(C)c(C)nc12 [linaprazan glurate, 5-{2-[({8-[(2,6-dimethylbenzyl)amino]-2,3-dimethylimidazo[1,2-a]pyridine-6-yl}carbonyl)-amino]ethoxy}-5-oxopentanoic acid]
- safety data vs lansoprazole ([1]; LG 25-100 mg BID): comparable to that of lansoprazole
- tolerability ([1]; LG 25-100 mg BID): generally well tolerated
- COVID-19 (%) ([1]; LG 25 mg BID): 2.0%
- COVID-19 events ([1]; LG 25 mg BID): 1 events
- Constipation (%) ([1]; LG 25 mg BID): 3.9%
- Constipation events ([1]; LG 25 mg BID): 2 events
- Headache (%) ([1]; LG 25 mg BID): 2.0%
- Headache events ([1]; LG 25 mg BID): 1 events
- Nausea (%) ([1]; LG 25 mg BID): 2.0%
- Nausea events ([1]; LG 25 mg BID): 1 events
- COVID-19 (%) ([1]; LG 50 mg BID): 4.2%
- COVID-19 events ([1]; LG 50 mg BID): 2 events
- Constipation (%) ([1]; LG 50 mg BID): 2.1%
- Constipation events ([1]; LG 50 mg BID): 1 events
- Headache (%) ([1]; LG 50 mg BID): 6.3%
- Headache events ([1]; LG 50 mg BID): 3 events
- Nausea (%) ([1]; LG 50 mg BID): 0.0%
- Nausea events ([1]; LG 50 mg BID): 0 events
- COVID-19 (%) ([1]; LG 75 mg BID): 1.9%
- COVID-19 events ([1]; LG 75 mg BID): 1 events
- Constipation (%) ([1]; LG 75 mg BID): 3.8%
- Constipation events ([1]; LG 75 mg BID): 2 events
- Headache (%) ([1]; LG 75 mg BID): 1.9%
- Headache events ([1]; LG 75 mg BID): 1 events
- Nausea (%) ([1]; LG 75 mg BID): 0.0%
- Nausea events ([1]; LG 75 mg BID): 0 events
- COVID-19 (%) ([1]; LG 100 mg BID): 8.5%
- COVID-19 events ([1]; LG 100 mg BID): 4 events
- Constipation (%) ([1]; LG 100 mg BID): 0.0%
- Constipation events ([1]; LG 100 mg BID): 0 events
- Headache (%) ([1]; LG 100 mg BID): 2.1%
- Headache events ([1]; LG 100 mg BID): 1 events
- Nausea (%) ([1]; LG 100 mg BID): 0.0%
- Nausea events ([1]; LG 100 mg BID): 0 events
- plasma concentration of linaprazan glurate ([2]; following absorption): very low
- metabolism into linaprazan ([2]; following absorption into the blood stream): quickly metabolized into linaprazan
- heartburn severity, rank among groups ([3]; FAS Erosive, first week, morning and evening, LG 75 mg BID): lowest heartburn severity
- percentage of symptom free days (highest of groups) ([3]; FAS Erosive, week 1, LG 75 mg BID): 33.3%
- heartburn-free days vs lansoprazole ([3]; FAS Erosive, week 1 to 4, all LG groups): more heartburn-free days
- percentage of symptom free days (highest of groups) ([3]; FAS Erosive, week 2, LG 75 mg BID): 57.2%
- percentage of symptom free days (highest of groups) ([3]; FAS Erosive, week 3, LG 75 mg BID): 62.6%
- percentage of symptom free days (highest of groups) ([3]; FAS Erosive, week 4, LG 100 mg BID): 65.2%
- percentage of heartburn-free days (highest of groups) ([3]; FAS Erosive, week 5 open-label lansoprazole, former LG 75 mg group): 72.6%
- heartburn-free days vs lansoprazole ([3]; FAS Erosive, week 5 to 8 open-label (all on lansoprazole 30 mg QD), former LG groups): more heartburn-free days
- percentage of heartburn-free days (highest of groups) ([3]; FAS Erosive, week 6 open-label lansoprazole, former LG 75 mg group): 73.0%
- percentage of heartburn-free days (highest of groups) ([3]; FAS Erosive, week 7 open-label lansoprazole, former LG 25 mg group): 81.9%
- percentage of heartburn-free days (highest of groups) ([3]; FAS Erosive, week 8 open-label lansoprazole, former LG 25 mg group): 87.6%
- severity grade of heartburn, rank among groups ([3]; FAS, first week, morning and evening, LG 75 mg BID): lowest severity grade
- percentage of symptom free days (highest of groups) ([3]; FAS, week 1, LG 75 mg BID): 29.2%
- heartburn-free days vs lansoprazole ([3]; FAS, week 1 to 4, all LG groups): more heartburn-free days
- percentage of symptom free days (highest of groups) ([3]; FAS, week 2, LG 75 mg BID): 52.9%
- percentage of symptom free days (highest of groups) ([3]; FAS, week 4, LG 100 mg BID): 62.2%
- percentage of heartburn-free days (highest of groups) ([3]; FAS, week 5 open-label lansoprazole, former LG 75 mg group): 69.6%
- heartburn-free days vs lansoprazole ([3]; FAS, week 5 to 8 open-label (all on lansoprazole 30 mg QD), former LG groups): more heartburn-free days
- percentage of heartburn-free days (highest of groups) ([3]; FAS, week 7 open-label lansoprazole, former LG 25 mg group): 79.4%
- percentage of heartburn-free days (highest of groups) ([3]; FAS, week 8 open-label lansoprazole, former LG 25 mg group): 82.4%
- heartburn-free days, rank among groups ([3]; LA Grade A/B, week 1 to 3, LG 75 mg BID): highest percentage of heartburn-free days
- heartburn-free days, rank among groups ([3]; LA Grade A/B, week 5 open-label lansoprazole, former LG 75 mg group): highest percentage of heartburn-free days
- heartburn-free days, rank among groups ([3]; LA Grade A/B, weeks 7 and 8 open-label lansoprazole, former LG 25 mg group): highest percentage of heartburn-free days
- heartburn-free days, rank among groups ([3]; LA Grade C/D, week 1 and 4, LG 50 mg BID): highest percentage of heartburn-free days
- heartburn-free days, rank among groups ([3]; LA Grade C/D, week 2, LG 75 mg BID): highest percentage of heartburn-free days
- heartburn-free days, rank among groups ([3]; LA Grade C/D, week 3, LG 100 mg BID): highest percentage of heartburn-free days
- heartburn-free days, rank among groups ([3]; LA Grade C/D, week 5 open-label lansoprazole, former LG 50 mg group): highest percentage of heartburn-free days
- heartburn-free days, rank among groups ([3]; LA Grade C/D, week 6 to 8 open-label lansoprazole, former LG 75 mg group): highest percentage of heartburn-free days
- % at most mild symptoms 24-hour days (mean) ([3]; LG 25 mg BID (N = 21)): 96%
- % heartburn-free 24-hour days (mean) ([3]; LG 25 mg BID (N = 21)): 52%
- Patients (%) totally free from heartburn ([3]; LG 25 mg BID (N = 21)): 45%
- Patients (%) with at most mild heartburn ([3]; LG 25 mg BID (N = 21)): 97%
- Patients (%) with non-mild heartburn ([3]; LG 25 mg BID (N = 21)): 6%
- % at most mild symptoms 24-hour days (mean) ([3]; LG 50 mg BID (N = 27)): 96%
- % heartburn-free 24-hour days (mean) ([3]; LG 50 mg BID (N = 27)): 56%
- Patients (%) totally free from heartburn ([3]; LG 50 mg BID (N = 27)): 44%
- Patients (%) with at most mild heartburn ([3]; LG 50 mg BID (N = 27)): 97%
- Patients (%) with non-mild heartburn ([3]; LG 50 mg BID (N = 27)): 6%
- % at most mild symptoms 24-hour days (mean) ([3]; LG 75 mg BID (N = 20)): 97%
- % heartburn-free 24-hour days (mean) ([3]; LG 75 mg BID (N = 20)): 56%
- Patients (%) totally free from heartburn ([3]; LG 75 mg BID (N = 20)): 50%
- Patients (%) with at most mild heartburn ([3]; LG 75 mg BID (N = 20)): 87%
- Patients (%) with non-mild heartburn ([3]; LG 75 mg BID (N = 20)): 13%
- % at most mild symptoms 24-hour days (mean) ([3]; LG 100 mg BID (N = 19)): 100%
- % heartburn-free 24-hour days (mean) ([3]; LG 100 mg BID (N = 19)): 76%
- Patients (%) totally free from heartburn ([3]; LG 100 mg BID (N = 19)): 63%
- Patients (%) with at most mild heartburn ([3]; LG 100 mg BID (N = 19)): 92%
- Patients (%) with non-mild heartburn ([3]; LG 100 mg BID (N = 19)): 8%
- intragastric pH two hours after the first dose [4]: Neutral intragastric pH
